The values that follow come from ChEMBL document CHEMBL1143868, “Synthesis, SAR, and Evaluation of 4-[2,4-Difluoro-5-(cyclopropylcarbamoyl)phenylamino]pyrrolo[2,1-f][1,2,4]triazine-based VEGFR-2 kinase inhibitors” (Bioorg Med Chem Lett, 2008).

One series concerns Liver microsomes. Nature of the series: Metabolic stability in human liver microsomes per mg of protein at 3 uM after 10 mins. The series is classed as ADME, Microsome. A general note: Liver microsomes are a subcellular fraction often used to study metabolism.
The nature of series [1]: AUC (0 to 4 hrs) in mouse at 50 mg/kg, po. In kind it is ADME, organism-based. Details: time < 4 hr, dose 50 mg/kg, route oral. The settings on record: plasma.
Another series relates to Liver. Nature of the series: Metabolic stability in mouse liver microsomes per mg of protein at 3 uM after 10 mins. The series is classed as ADME, Microsome.
A short description of series [2]: Tmax in mouse at 50 mg/kg, po. The series is classed as ADME, organism-based. Details: dose 50 mg/kg, route oral. The settings on record: in vivo.
The nature of series [3]: Cmax in mouse at 50 mg/kg, po. As to conditions: in vivo. Details: dose 50 mg/kg, route oral. In kind it is ADME, organism-based.

As a reminder, the AUC(0-t) is the area under the concentration-time curve up to a stated or last time point. A high value points to high exposure. By Tmax is commonly meant the time from dosing to the highest level. The Cmax is the maximum level reached in the sampled fluid or tissue. Turning to `CC(C)c1c(-c2nnc(NCCCCN)o2)cn2ncnc(Nc3cc(C(=O)NC4CC4)c(F)cc3F)c12`, the Stability with Liver microsomes worked out at 0.012 nmol/min/mg; in the series on Liver, 0 nmol/min/mg. This molecule displayed an AUC(0-t) at 4 h in series [1] of 0.2 µM·h. Further, the Tmax in series [2] amounted to 0.5 h. Further, in series [3], the peak concentration (Cmax) came out at 0.1 µM.
Consider `CC(C)c1c(-c2nnc(OC3CCNCC3)o2)cn2ncnc(Nc3cc(C(=O)NC4CC4)c(F)cc3F)c12`, for which the figures for the Stability in the series on Liver microsomes and in the series on Liver were 0.023 nmol/min/mg and 0.007 nmol/min/mg, respectively. The same molecule returned an area under the curve AUC(0-t) at 4 h in series [1] of 53.2 µM·h. Besides, the Tmax in series [2] is 4 h. Moreover, the Cmax in series [3] stood at 15 µM.
As for `CC(C)c1c(-c2nnc(NCCCN(C)C)o2)cn2ncnc(Nc3cc(C(=O)NC4CC4)c(F)cc3F)c12`, the Stability in the series with Liver microsomes stood at 0.098 nmol/min/mg; in the series with Liver, 0.02 nmol/min/mg. Moreover, the AUC(0-t) at 4 h in series [1] came to 21.7 µM·h. For the same molecule, in series [2], the time to peak (Tmax) was 1 h. Further, the Cmax in series [3] amounted to 8 µM.
